Source: patent US7871960B2, “1-(Imidazolin-2-yl)amino-1,2-diphenylethane compounds for combating animal pests” (BASF SE, priority 2005, dated 2011)
Where a name gives a salt, the structure may show the parent alone.

Legend:
[1] = test system: Megoura viciae; assay: Vetch aphid (Megoura viciae) mortality on sprayed bean leaf disks in microtiterplates; format: in vivo; conditions: foliar, 144 h, bean leaf disks sprayed with 2.5 μl, 6 days, read-out: mortality in comparison with untreated controls
Protocol: The active compounds were formulated in 1:3 DMSO:water. Bean leaf disks were placed into microtiterplates filled with 0.8% agar-agar and 2.5 ppm OPUS™. The leaf disks were sprayed with 2.5 μl of the test solution and 5 to 8 adult aphids were placed into the microtiterplates which were then closed and kept at 22-24° C. and 35-45% under fluorescent light for 6 days. Mortality was assessed on the basis of vital, reproduced aphids. Tests were replicated 2 times.

melting point [°C]	SMILES	mortality at 2500 ppm [1] [%]
162 to 164	Clc1cccc(CC(N=C2NCCN2)c2ccccc2)c1 (centres unmarked) (as salt: salt) [Example 1.1, [2-(3-Chloro-phenyl)-1-phenyl-ethyl]-(4,5-dihydro-1H-imidazol-2-yl)-amine hydroiodide]	–
–	CC(=O)N1CCN=C1NC(Cc1ccccc1)c1ccccc1 (centres unmarked) [Example 2.1, 1-[2-(1,2-Diphenylethylamino)-4,5-dihydroimidazol-1-yl]-ethanone]	> 80
